The values that follow come from patent publication US20260317356A1, “SMALL MOLECULE MODULATORS OF OGG1” (AZKARRA THERAPEUTICS, INC., priority 2023, published 2026).

In this test the target is hOGG1 (Homo sapiens, UniProt O15527). Put plainly: Biochemical fluorescence assay to measure enzymatic activity of hOGG1 (OGG1/APEX IC50). The arrangement: Protein His-hOGG1 (12-323) was prepared; His (N); host or cells: E. coli. The note with it: 1 nM OGG1+2 nM APEX+6 nM dsDNA (8-oxo-dG substrate); pH 7.5; RT 40 min; read-out: OGG1/APEX IC50. The essentials: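 His-hOGG1 (12-323, E. coli) at 1 nM with 2 nM hAPE1/APEX1, preincubated 20 min RT with compound. Then 6 nM 8-oxo-dG dsDNA substrate added, 40 min at RT in Tris pH 7.5, 100 mM KCl. TAMRA fluorescence (Ex520/Em600) converted to % inhibition vs controls; IC50 from 3-parameter fit of 10-point curve.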
Sequence of hOGG1 (O15527 12-323): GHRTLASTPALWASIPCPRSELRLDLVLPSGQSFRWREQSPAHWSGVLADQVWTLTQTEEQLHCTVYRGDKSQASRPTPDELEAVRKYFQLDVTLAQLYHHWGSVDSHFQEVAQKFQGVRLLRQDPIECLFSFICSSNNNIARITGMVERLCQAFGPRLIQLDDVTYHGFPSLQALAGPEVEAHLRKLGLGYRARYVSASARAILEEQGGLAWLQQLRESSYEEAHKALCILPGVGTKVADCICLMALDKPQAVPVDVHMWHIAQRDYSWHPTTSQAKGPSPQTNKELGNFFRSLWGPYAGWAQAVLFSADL

Take `Cc1cccc2c1CN([C@H]1CC[C@@H](C(=O)Nc3ccc4cc[nH]c4c3)CC1)C2=O` [Example 276, (1s,4s)-N-(1H-indol-6-yl)-4-(4-methyl-1-oxoisoindolin-2-yl)cyclohexanecarboxamide]: the IC50 is 1 to 10 µM.

Take `COc1cc(NC(=O)[C@H]2CC[C@@H](N3Cc4c(Br)cc(NC5COC5)cc4C3=O)CC2)ccc1C` [Example 174, (1s,4s)-4-(4-Bromo-6-(oxetan-3-ylamino)-1-oxoisoindolin-2-yl)-N-(3-methoxy-4-methylphenyl)cyclohexanecarboxamide]: the IC50 fell in the range of 0.1 to 1 µM. Regarding `COc1cc(NC(=O)[C@H]2CC[C@@H](N3Cc4c(cccc4C(F)(F)F)C3=O)CC2)ccc1C` [Example 147, (1s,4s)-N-(3-Methoxy-4-methylphenyl)-4-(1-oxo-4-(trifluoromethyl)isoindolin-2-yl)cyclohexanecarboxamide], the IC50 was 1 to 10 µM. With `Cc1cccc2c1CN([C@H]1CC[C@@H](C(=O)Nc3ccc4nc[nH]c4c3)CC1)C2=O` [Example 272, (1s,4s)-N-(1H-benzo[d]imidazol-6-yl)-4-(4-methyl-1-oxoisoindolin-2-yl)cyclohexanecarboxamide], the IC50 lay in the range of 1 to 10 µM. The value for `COc1cc(NC(=O)[C@H]2CC[C@@H](N3Cc4c(C)cnc(C#N)c4NC3=O)CC2)ccc1C` [Example 22, (1s,4s)-4-(8-Cyano-5-methyl-2-oxo-1,2-dihydropyrido[3,4-d]pyrimidin-3(4H)-yl)-N-(3-methoxy-4-methylphenyl)cyclohexanecarboxamide] was < 0.1 µM; that for `COc1cc(NC(=O)[C@H]2CC[C@@H](N3Cc4c(C)cc(NCCN(C)C)cc4C3=O)CC2)ccc1C` [Example 208, (1s,4s)-4-(6-(2-(Dimethylamino)ethylamino)-4-methyl-1-oxoisoindolin-2-yl)-N-(3-methoxy-4-methylphenyl)cyclohexanecarboxamide] was < 0.1 µM; that for `COc1cc(NC(=O)[C@H]2CC[C@@H](N3Cc4c(C)cncc4NC3=O)CC2)ccc1C` [Example 37, (1s,4s)-N-(3-Methoxy-4-methylphenyl)-4-(5-methyl-2-oxo-1,2-dihydropyrido[3,4-d]pyrimidin-3(4H)-yl)cyclohexanecarboxamide] was < 0.1 µM. Regarding `CCc1ccc(NC(=O)[C@H]2CC[C@@H](N3Cc4c(C)cccc4NC3=O)CC2)cc1C#N` [Example 94, (1s,4s)-N-(3-cyano-4-ethylphenyl)-4-(5-methyl-2-oxo-1,2-dihydroquinazolin-3(4H)-yl)cyclohexanecarboxamide], the IC50 fell in the range of 0.1 to 1 µM. For the compound `COc1cc(NC(=O)[C@H]2CC[C@@H](N3Cc4c(C)ccc(CO)c4NC3=O)CC2)ccc1C` [Example 54, (1s,4s)-4-(8-(Hydroxymethyl)-5-methyl-2-oxo-1,2-dihydroquinazolin-3(4H)-yl)-N-(3-methoxy-4-methylphenyl)cyclohexanecarboxamide], the IC50 is < 0.1 µM. The value for `COc1cc(NC(=O)[C@H]2CC[C@@H](N3Cc4c(Br)cc(NC(=O)CN5CCOCC5)cc4C3=O)CC2)ccc1C` [Example 199, (1s,4s)-4-(4-Bromo-6-(2-morpholinoacetamido)-1-oxoisoindolin-2-yl)-N-(3-methoxy-4-methylphenyl)cyclohexanecarboxamide] was 0.1 to 1 µM; that for `COc1cc(NC(=O)[C@H]2CC[C@@H](N3Cc4c(C)ccc(C)c4NC3=O)CC2)ccc1C` [Example 25, (1s,4s)-4-(5,8-Dimethyl-2-oxo-1,2-dihydroquinazolin-3(4H)-yl)-N-(3-methoxy-4-methylphenyl)cyclohexanecarboxamide] was < 0.1 µM. The value for `CNCCOc1cc(C)c2c(c1)C(=O)N([C@H]1CC[C@@H](C(=O)Nc3ccc(C)c(OC)c3)CC1)C2` [Example 266, (1s,4s)-N-(3-Methoxy-4-methylphenyl)-4-(4-methyl-6-(2-(methylamino)ethoxy)-1-oxoisoindolin-2-yl)cyclohexanecarboxamide] was < 0.1 µM; that for `Cc1cccc2c1CN([C@H]1CC[C@@H](C(=O)Nc3ccc(Cl)c(F)c3)CC1)C(=O)N2` [Example 90, (1s,4s)-N-(4-chloro-3-fluorophenyl)-4-(5-methyl-2-oxo-1,2-dihydroquinazolin-3(4H)-yl)cyclohexanecarboxamide] was 0.1 to 1 µM; that for `C=C(C)c1cccc2c1CN([C@H]1CC[C@@H](C(=O)Nc3ccc(C)c(OC)c3)CC1)C2=O` [Example 157, (1s,4s)-N-(3-Methoxy-4-methylphenyl)-4-(1-oxo-4-(prop-1-en-2-yl)isoindolin-2-yl)cyclohexanecarboxamide] was > 10 µM. Regarding `COc1cc(NC(=O)[C@H]2CC[C@@H](N3Cc4c(C)cnc(Cl)c4NC3=O)CC2)ccc1C` [Example 32, (1s,4s)-4-(8-Chloro-5-methyl-2-oxo-1,2-dihydropyrido[3,4-d]pyrimidin-3(4H)-yl)-N-(3-methoxy-4-methylphenyl)cyclohexanecarboxamide], the IC50 was < 0.1 µM. With `O=C1c2cccc(Br)c2CN1[C@H]1CC[C@@H](C(=O)Nc2ccc3c(c2)OCO3)CC1` [Example 185, (1s,4s)-N-(Benzo[d][1,3]dioxol-5-yl)-4-(4-bromo-1-oxoisoindolin-2-yl)cyclohexanecarboxamide] the figure was 1 to 10 µM; with `Cc1cccc2c1CN([C@H]1CC[C@@H](C(=O)Nc3ccc4nc[nH]c4c3)CC1)C(=O)N2` [Example 109, (1s,4s)-N-(1H-benzo[d]imidazol-6-yl)-4-(5-methyl-2-oxo-1,2-dihydroquinazolin-3(4H)-yl)cyclohexanecarboxamide], 1 to 10 µM; with `COc1cc(NC(=O)[C@H]2CC[C@@H](N3Cc4c(cccc4C(F)(F)F)NC3=O)CC2)ccc1C` [Example 70, (1s,4s)-N-(3-methoxy-4-methylphenyl)-4-(2-oxo-5-(trifluoromethyl)-1,2-dihydroquinazolin-3(4H)-yl)cyclohexanecarboxamide], 0.1 to 1 µM. The value for `Cc1cc(NC(=O)[C@H]2CC[C@@H](N3Cc4c(C)cccc4C3=O)CC2)ccc1O` [Example 220, (1s,4s)-N-(4-Hydroxy-3-methylphenyl)-4-(4-methyl-1-oxoisoindolin-2-yl)cyclohexanecarboxamide] was 0.1 to 1 µM. The value for `COc1cc(NC(=O)[C@H]2CC[C@@H](N3Cc4cc(Br)ccc4C3=O)CC2)ccc1C` [Example 170, (1s,4s)-4-(5-Bromo-1-oxoisoindolin-2-yl)-N-(3-methoxy-4-methylphenyl)cyclohexanecarboxamide] was > 10 µM; that for `COc1ccc(NC(=O)[C@H]2CC[C@@H](N3Cc4c(C)cc(NCCN(C)C)cc4C3=O)CC2)cc1F` [Example 257, (1s,4s)-4-(6-(2-(Dimethylamino)ethylamino)-4-methyl-1-oxoisoindolin-2-yl)-N-(3-fluoro-4-methoxyphenyl)cyclohexanecarboxamide] was < 0.1 µM; that for `Cc1cc(NCCN(C)C)cc2c1CN([C@H]1CC[C@@H](C(=O)Nc3ccn(CCO)n3)CC1)C2=O` [Example 130, (1s,4s)-4-(6-((2-(Dimethylamino)ethyl)amino)-4-methyl-1-oxoisoindolin-2-yl)-N-(1-(2-hydroxyethyl)-1H-pyrazol-3-yl)cyclohexane-1-carboxamide] was 1 to 10 µM.

As to `COc1cc(NC(=O)[C@H]2CC[C@@H](N3Cc4c(ccc(Br)c4C)NC3=O)CC2)ccc1C` [Example 63, (1s,4s)-4-(6-bromo-5-methyl-2-oxo-1,2-dihydroquinazolin-3(4H)-yl)-N-(3-methoxy-4-methylphenyl)cyclohexanecarboxamide], the IC50 lay within 1 to 10 µM. As for `COc1cc(NC(=O)[C@H]2CC[C@@H](N3Cc4c(C)cc(N)cc4NC3=O)CC2)ccc1C` [Example 76, (1s,4s)-4-(7-amino-5-methyl-2-oxo-1,2-dihydroquinazolin-3(4H)-yl)-N-(3-methoxy-4-methylphenyl)cyclohexanecarboxamide], the IC50 is < 0.1 µM. With `COc1cc(NC(=O)[C@H]2CC[C@@H](N3Cc4c(C)cccc4NC3=O)CC2)ccc1C` [Example 69, (1s,4s)-N-(3-methoxy-4-methylphenyl)-4-(5-methyl-2-oxo-1,2-dihydroquinazolin-3(4H)-yl)cyclohexanecarboxamide], the IC50 is < 0.1 µM. The value for `CCc1ccc(NC(=O)[C@H]2CC[C@@H](N3Cc4c(C)cccc4C3=O)CC2)cc1C` [Example 127, (1s,4s)-N-(4-Ethyl-3-methylphenyl)-4-(4-methyl-1-oxoisoindolin-2-yl)cyclohexane-1-carboxamide] was 1 to 10 µM; that for `CCc1ccc(NC(=O)[C@H]2CC[C@@H](N3Cc4c(C)cccc4C3=O)CC2)cc1C#N` [Example 128, (1s,4s)-N-(3-Cyano-4-ethylphenyl)-4-(4-methyl-1-oxoisoindolin-2-yl)cyclohexane-1-carboxamide] was 0.1 to 1 µM; that for `COc1cc(NC(=O)[C@H]2[C@@H]3C[C@@H](N4Cc5c(Br)cccc5C4=O)C[C@@H]32)ccc1C` (single isomer, unassigned) [Example 270] was > 10 µM. The value for `COc1cc(NC(=O)[C@]2(C)CC[C@@H](N3Cc4c(C)cccc4C3=O)CC2)ccc1C` [Example 278, (1r,4r)-N-(3-methoxy-4-methylphenyl)-1-methyl-4-(4-methyl-1-oxoisoindolin-2-yl)cyclohexane-1-carboxamide] was 1 to 10 µM. `COc1cc(NC(=O)[C@H]2CC[C@@H](N3Cc4c(C)cnc(CNS(C)(=O)=O)c4NC3=O)CC2)ccc1C` [Example 18, (1s,4s)-N-(3-Methoxy-4-methylphenyl)-4-(5-methyl-8-(methylsulfonamidomethyl)-2-oxo-1,2-dihydropyrido[3,4-d]pyrimidin-3(4H)-yl)cyclohexanecarboxamideoxamide]: the IC50 was < 0.1 µM.
